Measurements: patent US4289883A, “Carbostyril compounds” (Otsuka Pharmaceutical Co., Ltd., priority 1976, dated 1981)
Read-outs that look alike come from different tables or passages of the source.

Experiments:
[1] = acute toxicity (LD50), i.v. and p.o.; parameters: species or system rats; conditions: rat, in vivo
Procedure: Further, the acute toxicity of the compounds of the present invention having the formula (I) was determined by intravenous administration (i.v.) and oral administration (p.o.) in 5 to 6 group of rats (dd, strain; body weight, 18 to 22 g; 10 rats in each group) which have been fasted for 12 hours prior to the test.

[2] = system: β-adrenoreceptor; test: β-adrenergic blocking activity in anesthetized dogs (antagonism to isoprenaline effects on heart rate, diastolic blood pressure and air-way resistance); type: in vivo; conditions: 10 minutes after i.v. test compound 300 μg/kg; for Inhibition (%) dBP (Diastolic Blood Pressure): antagonism to isoprenaline (1 μg/kg i.v.) induced depression of diastolic blood pressure; for Inhibition (%) dBP (Diastolic Blood Pressure) / Inhibition (%) AR (AirWay Resistance): dogs; for Inhibition (%) HR (Heart Rate): antagonism to isoprenaline (1 μg/kg i.v.) induced increase in heart rate, male hybrid adult dogs; for Inhibition (%) AR (AirWay Resistance): antagonism to isoprenaline depression of histamine (5 μg/kg i.v.) induced increase of air-way resistance
Procedure: The β-adrenergic blocking activity of the compounds of this invention was determined as follows:
Male hybrid adult dogs, weighing 10 to 16 kg, were anesthesized with sodium pentobarbital administered intravenously at a level of 30 mg/kg of body weight, and a cannula was inserted into the trachea of each of the anesthesized dogs. In order to avoid blood coagulation, heparin was administered intravenously at a level of 1000 units and thereafter a cannula was inserted into the right femoral artery. The experiments were conducted under artificial respiration at a rate of 20 ml/kg, 18 r.p.m.
The above parameters were continuously recorded on a polygraph (8S 28 Type, tradename of Sanei Sokki Co., Japan). During the experiment, gallamine was administered intravenously at a dosage of 3 mg/kg at one-hour intervals to avoid fluctuation of air-way resistance.
The β-adrenergic blocking activity of each of the test compounds was evaluated in terms of antagonism (Inhibition %) to the depression at the diastolic blood pressure (dBP) and to the increase in the heart rate induced by the intravenous administration of isoprenaline (1 μg/kg) and in terms of antagonism (Inhibition %) to the depression by isoprenaline in increase of air-way resistance which was induced by intravenous administration of histamine (5 μg/kg). In this case, histamine was administered 45 seconds after the administration of isoprenaline.

Row | Structure (SMILES) | LD50 ([1]; iv, Rats (Female), read-out: LD50 (50% lethal dose) i.v.) [mg/kg] | LD50 ([1]; iv, Rats (Male), read-out: LD50 (50% lethal dose) i.v.) [mg/kg] | LD50 ([1]; po, Rats (Female), read-out: LD50 (50% lethal dose) p.o.) [mg/kg] | LD50 ([1]; po, Rats (Male), read-out: LD50 (50% lethal dose) p.o.) [mg/kg] | Inhibition (%) dBP (Diastolic Blood Pressure) [2] [%] | Inhibition (%) HR (Heart Rate) [2] [%] | Inhibition (%) AR (AirWay Resistance) [2] [%]
1 | COCCOc1ccc(OCC(O)CNCCc2ccc(OC)c(OC)c2)c2c1NC(=O)CC2.O=C(O)/C=C\C(=O)O (stereo not drawn) [8-(2-methoxyethoxy)-5-[3-(3,4-dimethoxyphenethylamino)-2-hydroxypropoxy]-3,4-dihydrocarbostyril maleate] | 160 | 185 | 1450 | 1550 | – | – | –
2 | CC(C)NCC(O)COc1ccc(CC(N)=O)cc1 (stereo not drawn) [Atenolol, reference compound] | – | – | – | – | 26.9 | 52.3 | 9.8
3 | CC(C)(C)NCC(O)COc1cccc2c1CCC(=O)N2 (stereo not drawn) [Comparison Compound 1, reference compound] | – | – | – | – | 100 | 100 | 100
4 | COc1ccc(CCNCC(O)COc2cccc3c2CCC(=O)N3)cc1OC (stereo not drawn) [Comparison Compound 2, reference compound] | – | – | – | – | 65.6 | 87.2 | 79.1
5 | CC(C)(C)NCC(O)COc1ccc(O)c2c1CCC(=O)N2 (stereo not drawn) [Prior Art Compound 1, reference compound] | – | – | – | – | 100 | 100 | 100
6 | COc1ccc(OCC(O)CNC(C)(C)C)c2c1NC(=O)CC2 (stereo not drawn) [Prior Art Compound 2, reference compound] | – | – | – | – | 83.7 | 82.1 | 80.2
7 | CC(C)(C)NCC(O)COc1ccc(OCc2ccccc2)c2c1CCC(=O)N2 (stereo not drawn) [Prior Art Compound 3, reference compound] | – | – | – | – | 10.2 | 71.3 | 67.8
8 | COCCOc1ccc(OCC(O)CNCCc2ccc(OC)c(OC)c2)c2c1NC(=O)CC2 (stereo not drawn) [Sample 1] | – | – | – | – | 28.3 | 45.5 | 25.0
9 | C=CCOc1ccc(OCC(O)CNCCc2ccc(OC)c(OC)c2)c2c1NC(=O)CC2 (stereo not drawn) [Sample 2] | – | – | – | – | 23.5 | 50.2 | 24.5
10 | C#CCOc1ccc(OCC(O)CNCCc2ccc(OC)c(OC)c2)c2c1NC(=O)CC2 (stereo not drawn) [Sample 3] | – | – | – | – | 39.5 | 57.6 | 14.0
11 | COc1ccc(CCNCC(O)COc2ccc(OCC(C)=O)c3c2CCC(=O)N3)cc1OC (stereo not drawn) [Sample 4] | – | – | – | – | 15.1 | 44.6 | 2.7
12 | C#CCOc1ccc(OCC(O)CNCC=C)c2c1NC(=O)CC2 (stereo not drawn) [Sample 5] | – | – | – | – | 35.0 | 50.5 | 24.3
13 | C#CCOc1ccc(OCC(O)CNC(C)(C)C)c2c1NC(=O)CC2 (stereo not drawn) [Sample 6] | – | – | – | – | 94.5 | 100 | 47.6
14 | C#CCOc1ccc(OCC(O)CNC(c2ccccc2)c2ccccc2)c2c1NC(=O)CC2 (stereo not drawn) [Sample 7] | – | – | – | – | 20.5 | 18.4 | 8.0
15 | COc1ccc(CCNCC(O)COc2ccc(OCCO)c3c2CCC(=O)N3)cc1OC (stereo not drawn) [Sample 8] | – | – | – | – | 16.8 | 26.3 | 8.1
16 | C#CCOc1ccc(OCC(O)CNC(C)(C)Cc2ccccc2)c2c1NC(=O)CC2 (stereo not drawn) [Sample 9] | – | – | – | – | 75.7 | 61.7 | 41.3
17 | C=CCOc1ccc(OCC(O)CNCC(c2ccccc2)c2ccccc2)c2c1NC(=O)CC2 (stereo not drawn) [Sample 10] | – | – | – | – | 20.4 | 25.8 | 3.5
18 | COc1ccc(CCNCC(O)COc2ccc(OCC(=O)O)c3c2CCC(=O)N3)cc1OC (stereo not drawn) [Sample 11] | – | – | – | – | 47.1 | 50.0 | 9.4
19 | COc1ccc(CCNCC(O)COc2ccc(OCC(N)=O)c3c2CCC(=O)N3)cc1OC (stereo not drawn) [Sample 12] | – | – | – | – | 44.2 | 57.9 | 15.2
20 | CC(=O)Oc1ccc(OCC(O)CNC(C)(C)C)c2c1N(Cc1ccccc1)C(=O)CC2 (stereo not drawn) [Sample 13] | – | – | – | – | 77.5 | 85.2 | 59.3
21 | CC(C)NCC(O)COc1ccc(OC(=O)C2CCCCC2)c2c1CCC(=O)N2 (stereo not drawn) [Sample 14] | – | – | – | – | 36.3 | 43.2 | 27.6
22 | CCOC(=O)COc1ccc(OCC(O)CNCCc2ccc(OC)c(OC)c2)c2c1NC(=O)CC2 (stereo not drawn) [Sample 15] | – | – | – | – | 8.5 | 10.2 | 2.7
23 | C#CCOc1ccc(OCC(O)CNCCc2ccc(OC)c(OC)c2)c2ccc(=O)[nH]c12 (stereo not drawn) [Sample 16] | – | – | – | – | 40.9 | 55.3 | 13.7
24 | COCCOc1ccc(OCC(O)CNC(C)C)c2c1NC(=O)CC2 (stereo not drawn) [Sample 17] | – | – | – | – | 34.1 | 41.8 | 9.7
25 | C=CCOc1ccc(OCC(O)CNC(C)(C)C)c2c1NC(=O)CC2.Cl (stereo not drawn) [Sample 18, 8-allyloxy-5-(3-t-butylamino-2-hydroxypropoxy)-3,4-dihydrocarbostyril hydrochloride] | – | – | – | – | 100 | 34.6 | 0
26 | COc1ccc(CCNCC(O)COc2ccc(OCC(=O)O)c3c2CCC(=O)N3)cc1OC (stereo not drawn) [Sample 19] | – | – | – | – | – | 50.0 | 9.4
27 | COCCOc1ccc(OCC(O)CNCCOc2ccc(OC)cc2)c2c1NC(=O)CC2 (stereo not drawn) [Sample 20] | – | – | – | – | 18.1 | 23.7 | 8.3
28 | C#CCOc1ccc(OCC(O)CNC2CCCCC2)c2c1NC(=O)CC2 (stereo not drawn) [Sample 21] | – | – | – | – | 22.0 | 17.3 | 8.3
